# Measurements as given in BindingDB's records for doi:10.7270/Q2Q52N1X (Vanderbilt Screening Center for GPCRs, Ion Channels and …, 2009).
# pEC50: −log10 of the molar value. Non-standard residues stand in square brackets, D forms with d. Residues, ends and D or L forms follow the SMILES beside them. ξ: configuration not given here. *: point of attachment. ξF = NC(Cc1ccccc1)C(=O)O; Cbz = O=C(OCc1ccccc1)*
# Biological target: T1, Solute carrier family 12 member 5 (Homo sapiens, UniProt Q9H2X9)
# T1 sequence (Q9H2X9 whole entry): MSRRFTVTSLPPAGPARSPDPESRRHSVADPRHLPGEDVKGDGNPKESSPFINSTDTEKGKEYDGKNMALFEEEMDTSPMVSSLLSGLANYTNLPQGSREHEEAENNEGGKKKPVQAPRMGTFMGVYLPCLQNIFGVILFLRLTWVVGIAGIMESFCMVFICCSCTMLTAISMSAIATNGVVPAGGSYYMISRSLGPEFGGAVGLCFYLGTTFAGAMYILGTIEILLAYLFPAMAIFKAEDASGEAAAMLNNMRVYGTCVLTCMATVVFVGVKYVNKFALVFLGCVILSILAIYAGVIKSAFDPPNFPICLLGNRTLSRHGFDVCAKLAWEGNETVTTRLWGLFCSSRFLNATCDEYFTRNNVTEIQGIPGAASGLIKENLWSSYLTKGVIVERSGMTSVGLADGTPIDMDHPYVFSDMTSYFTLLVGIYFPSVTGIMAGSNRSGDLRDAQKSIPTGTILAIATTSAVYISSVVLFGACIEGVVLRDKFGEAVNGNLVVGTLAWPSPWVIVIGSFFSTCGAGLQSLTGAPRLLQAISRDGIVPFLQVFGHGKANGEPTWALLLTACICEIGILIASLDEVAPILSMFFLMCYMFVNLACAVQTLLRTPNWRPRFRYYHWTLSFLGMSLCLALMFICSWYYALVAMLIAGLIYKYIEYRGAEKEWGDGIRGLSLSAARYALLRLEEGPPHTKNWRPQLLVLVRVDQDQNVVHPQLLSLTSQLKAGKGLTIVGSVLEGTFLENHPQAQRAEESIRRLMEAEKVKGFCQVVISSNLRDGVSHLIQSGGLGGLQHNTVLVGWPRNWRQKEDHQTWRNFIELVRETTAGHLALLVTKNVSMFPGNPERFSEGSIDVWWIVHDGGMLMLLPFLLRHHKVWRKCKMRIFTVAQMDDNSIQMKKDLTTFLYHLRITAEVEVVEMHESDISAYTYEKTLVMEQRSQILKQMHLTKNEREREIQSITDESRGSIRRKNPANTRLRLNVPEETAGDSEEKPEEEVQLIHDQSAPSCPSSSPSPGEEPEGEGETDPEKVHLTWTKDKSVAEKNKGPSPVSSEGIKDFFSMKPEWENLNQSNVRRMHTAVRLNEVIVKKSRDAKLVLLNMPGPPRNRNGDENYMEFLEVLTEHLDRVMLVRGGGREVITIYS
# Assay: concentration-response of KCC2 transport modulators – cell-based, HEK293 KCC2, FluoZin-2 fluorescence, dose response (AID 1736)
# [1] = inactive by the depositor's call
structure (smiles),measurement,setting,value
NC(=S)NN=C1C(=O)N(Cc2ccccc2)c2ccccc21 [1-[(Z)-[2-oxidanylidene-1-(phenylmethyl)indol-3-ylidene]amino]thiourea],pEC50,,6.21
"Cc1csc(NC(=O)CSc2ccc(-c3ccccc3)nn2)n1 [N-(4-methyl-1,3-thiazol-2-yl)-2-(6-phenylpyridazin-3-yl)sulfanyl-ethanamide]",pEC50,,6.31
Cc1nonc1NC(=O)CSc1ccc(-c2ccccc2)nn1 [MLS000074514],pEC50,,5.95
"O=C(c1cc(COc2c(F)cccc2F)on1)N1CCC(c2ccncc2)CC1 [4-[1-({5-[(2,6-difluorophenoxy)methyl]isoxazol-3-yl}carbonyl)piperidin-4-yl]pyridine]",pEC50,,4.91
"O=C(CSc1nnc(Cc2ccccc2)o1)c1ccc(F)cc1 [1-(4-fluorophenyl)-2-[[5-(phenylmethyl)-1,3,4-oxadiazol-2-yl]sulfanyl]ethanone]",pEC50,,5.41
"Cc1cc(NC(=O)CSc2ccc(-c3ccc(F)cc3)nn2)no1 [2-[6-(4-fluorophenyl)pyridazin-3-yl]sulfanyl-N-(5-methyl-1,2-oxazol-3-yl)acetamide]",pEC50,,6.74
CN(CC(=O)N1CCN(Cc2ccccc2)CC1)S(=O)(=O)c1cccc2nsnc12 [MLS000674627],pEC50,,6.02
CCC(Sc1nc(C)cc(=O)[nH]1)C(=O)Nc1sc2c(c1C#N)CCCC2 (stereo not given) [MLS000112919],pEC50,,4.59
"COc1cc(OC)c(C2=NOC(C(=O)N3CCc4ccccc4C3)C2)cc1Cl (stereo not given) [2-{[3-(5-chloro-2,4-dimethoxyphenyl)-4,5-dihydro-5-isoxazolyl]carbonyl}-1,2,3,4-tetrahydroisoquinoline]",pEC50,,5.09
"CSc1ccc(NC(=O)NCCN2CCc3ccccc3C2)cc1 [1-[2-(3,4-dihydro-1H-isoquinolin-2-yl)ethyl]-3-(4-methylsulfanylphenyl)urea]",pEC50,[1],4.67
"O=C(CSc1nnc(-c2ccc(F)cc2)o1)N1CCN(C(=O)c2ccco2)CC1 [2-[5-(4-Fluoro-phenyl)-[1,3,4]oxadiazol-2-ylsulfanyl]-1-[4-(furan-2-carbonyl)-piperazin-1-yl]-ethanone]",pEC50,,4.75
"N#Cc1nc(-c2cccs2)oc1N1CCN(Cc2ccccc2)CC1 [5-(4-benzyl-1-piperazinyl)-2-(2-thienyl)-1,3-oxazole-4-carbonitrile]",pEC50,,4.93
O=C(C[n+]1ccccc1)c1ccc(-c2ccccc2)cc1 [1-(4-phenylphenyl)-2-(1-pyridin-1-iumyl)ethanone;bromide],pEC50,,4.36
CCc1ccc(C(=O)COC(=O)c2cc([N+](=O)[O-])ccc2NCCO)cc1 [2-(2-hydroxyethylamino)-5-nitro-benzoic acid [2-(4-ethylphenyl)-2-keto-ethyl] ester],pEC50,,5.26
"CC1Cc2ccccc2N1C(=O)c1ccc(N2CCCCC2)c([N+](=O)[O-])c1 (stereo not given) [(2-methyl-2,3-dihydroindol-1-yl)-(3-nitro-4-piperidin-1-yl-phenyl)methanone]",pEC50,,5.80
"CC1Cc2ccccc2N1C(=O)CSc1nnc(CNc2ccccc2)o1 (stereo not given) [1-(2-Methyl-2,3-dihydro-indol-1-yl)-2-(5-phenylaminomethyl-[1,3,4]oxadiazol-2-ylsulfanyl)-ethanone]",pEC50,,4.73
O=C(NCC1CCCO1)C(c1cccs1)N(C(=O)c1ccc(-c2ccccc2)[nH]1)C1CCCC1 (stereo not given) [5-Phenyl-1H-pyrrole-2-carboxylic acid cyclopentyl-{[(tetrahydro-furan-2-ylmethyl)-carbamoyl]-thiophen-2-yl-methyl}-amide],pEC50,,5.25
"COc1ccc(-c2cc(CCCC(=O)NCCc3ccccc3)no2)cc1 [4-[5-(4-methoxyphenyl)-1,2-oxazol-3-yl]-N-(2-phenylethyl)butanamide]",pEC50,,5.74
"COc1cc(C(=S)N2CCOCC2)cc(OC)c1OC(=O)Cc1ccccc1 [(2,6-dimethoxy-4-morpholin-4-ylcarbothioyl-phenyl) 2-phenylethanoate]",pEC50,,5.94
"O=C(CSc1nnnn1-c1ccc(Cl)cc1)N1CCc2ccccc2C1 [2-[1-(4-chlorophenyl)tetrazol-5-yl]sulfanyl-1-(3,4-dihydro-1H-isoquinolin-2-yl)ethanone]",pEC50,,5.49
"CCC(c1nnc(SCc2nc3ccccc3s2)n1Cc1ccccc1)N(C)C (stereo not given) [1-[5-(1,3-benzothiazol-2-ylmethylsulfanyl)-4-(phenylmethyl)-1,2,4-triazol-3-yl]-N,N-dimethyl-propan-1-amine]",pEC50,,5.18
CC1CCCCN1C(=O)CSc1nnc(-c2c[nH]c3ccccc23)o1 (stereo not given),pEC50,,4.97
"O=C(O)CC/C(=C\c1ccc(N2CCCC2)c([N+](=O)[O-])c1)c1nc2ccccc2s1 [(E)-4-(1,3-benzothiazol-2-yl)-5-(3-nitro-4-pyrrolidin-1-yl-phenyl)pent-4-enoic acid]",pEC50,,4.53
O=C(NNc1nc(-c2ccccc2)cs1)c1ccccc1 [MLS000547345],pEC50,,7.53
CN(CC(=O)N1CC(=O)N(CCc2ccccc2)C(=O)C1)S(=O)(=O)c1cccc2nsnc12 [MLS000095099],pEC50,[1],2.64
"Sc1nnc(COc2ccc(Cl)cc2)o1 [5-(4-Chloro-phenoxymethyl)-3H-[1,3,4]oxadiazole-2-thione]",pEC50,,5.39
Cc1ccc(NC(=O)CCCSc2ccccc2)cc1S(=O)(=O)N1CCOCC1 [MLS000761060],pEC50,,3.39
"COc1cc(OC)c(C2=NOC(C(=O)NCCc3ccccc3)C2)cc1Cl (stereo not given) [3-(5-chloranyl-2,4-dimethoxy-phenyl)-N-(2-phenylethyl)-4,5-dihydro-1,2-oxazole-5-carboxamide]",pEC50,,5.20
Cc1ccc(-c2n[nH]c(=S)n2NC=CCc2ccccc2[N+](=O)[O-])cc1,pEC50,,5.74
"Sc1nnc(C2(c3ccccc3)CCCC2)o1 [5-(1-phenylcyclopentyl)-3H-1,3,4-oxadiazole-2-thione]",pEC50,,5.81
CCOC(=O)CNC(=O)C(Cc1ccccc1)NC(=O)OCc1ccccc1 (stereo not given) [2-[[1-oxo-3-phenyl-2-(phenylmethoxycarbonylamino)propyl]amino]acetic acid ethyl ester] (Cbz-[ξF]-Gly-OEt),pEC50,,5.30
"CCCCC(c1nnnn1Cc1ccco1)N1CCN(c2nc3ccccc3s2)CC1 (stereo not given) [2-[4-[1-[1-(2-furanylmethyl)-5-tetrazolyl]pentyl]-1-piperazinyl]-1,3-benzothiazole]",pEC50,[1],5.04
N#Cc1nc(Cc2cccc3ccccc23)oc1NCCN1CCOCC1 [5-(2-Morpholin-4-yl-ethylamino)-2-naphthalen-1-ylmethyl-oxazole-4-carbonitrile],pEC50,,4.99
Cn1c(CSc2nc3ccccc3s2)nc2ccccc21 [2-(1-Methyl-1H-benzoimidazol-2-ylmethylsulfanyl)-benzothiazole],pEC50,,4.91
CN1C(=O)/C(=C/c2ccccc2OCc2ccccc2)NC1=S [(5Z)-3-methyl-5-[(2-phenylmethoxyphenyl)methylidene]-2-sulfanylidene-4-imidazolidinone],pEC50,,5.12
CCc1cc(C(=O)N2CCCC(CNC(=O)c3ccc(-c4ccccc4)cc3)C2)no1 (stereo not given) [MLS000731765],pEC50,,5.37
"CC(C)(CN=C(S)NCCc1ccccc1)CN=C(S)NCCc1ccccc1 [1-[2,2-dimethyl-3-(2-phenylethylcarbamothioylamino)propyl]-3-(2-phenylethyl)thiourea]",pEC50,,6.03
O=C1OC(c2ccc(O)cc2)(c2ccc(O)cc2)c2ccccc21,pEC50,,5.48
O=C(Cn1nc(-c2ccccc2)ccc1=O)NCc1ccc2c(c1)OCO2 [2-(6-keto-3-phenyl-pyridazin-1-yl)-N-piperonyl-acetamide],pEC50,,5.88
"Cc1n[nH]c(O)c1C(c1ccc(-c2ccc(F)cc2)o1)c1c(C)n[nH]c1O [4-[[5-(4-fluorophenyl)furan-2-yl]-(3-methyl-5-oxo-1,2-dihydropyrazol-4-yl)methyl]-5-methyl-1,2-dihydropyrazol-3-one]",pEC50,,4.84
Cn1c(C(=O)NCCCN2CCN(c3ccccc3F)CC2)cc2c(=O)n(C)c3ccccc3c21 [MLS000118127],pEC50,,5.15
O=C(CCSCCc1ccccn1)Nc1ccc(Cc2ccncc2)cc1 [3-(2-pyridin-2-ylethylsulfanyl)-N-[4-(pyridin-4-ylmethyl)phenyl]propanamide],pEC50,,5.08
CC1=NN(C(=O)c2ccc(Br)cc2)C(O)(C(F)(F)OC(F)(F)F)C1 (stereo not given) [[5-[bis(fluoranyl)-(trifluoromethyloxy)methyl]-3-methyl-5-oxidanyl-4H-pyrazol-1-yl]-(4-bromophenyl)methanone],pEC50,[1],5.21
NC1=NC[C@@H](Cc2ccc(O)cc2)N1CCc1cc(C(F)(F)F)cc(C(F)(F)F)c1,pEC50,,5.10
"Cc1ccc(-c2csc(NC(=O)CCNC(=O)c3ccccc3Cl)n2)cc1 [2-chloranyl-N-[3-[[4-(4-methylphenyl)-1,3-thiazol-2-yl]amino]-3-oxidanylidene-propyl]benzamide]",pEC50,,5.67
